Laboratory results as given in ChEMBL document CHEMBL1136112, “Novel inhibitors of procollagen C-proteinase. Part 2: glutamic acid hydroxamates” (Bioorg Med Chem Lett, 2003).

Assays:
Interstitial collagenase = molecular target: T1, Interstitial collagenase (Homo sapiens, UniProt P03956); assay: Inhibition of matrix metalloprotease-1
T1 sequence (P03956 whole entry): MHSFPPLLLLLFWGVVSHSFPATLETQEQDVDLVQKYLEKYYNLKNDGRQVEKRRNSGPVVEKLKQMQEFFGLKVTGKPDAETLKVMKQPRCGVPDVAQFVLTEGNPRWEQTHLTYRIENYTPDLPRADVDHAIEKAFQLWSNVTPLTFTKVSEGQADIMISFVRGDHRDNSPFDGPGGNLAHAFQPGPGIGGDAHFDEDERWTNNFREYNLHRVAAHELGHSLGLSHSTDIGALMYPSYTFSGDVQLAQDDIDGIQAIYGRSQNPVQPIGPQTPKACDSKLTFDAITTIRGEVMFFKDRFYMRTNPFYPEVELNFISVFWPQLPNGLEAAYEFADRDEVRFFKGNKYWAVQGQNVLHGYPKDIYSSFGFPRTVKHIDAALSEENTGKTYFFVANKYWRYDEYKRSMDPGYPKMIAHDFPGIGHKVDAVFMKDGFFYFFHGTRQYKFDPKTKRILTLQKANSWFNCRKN

[1] = molecular target: T2, Bone morphogenetic protein 1 (Homo sapiens, UniProt P13497); assay: Ability to inhibit procollagen C-terminal proteinase (PCP) tested in vitro
T2 sequence (P13497 whole entry): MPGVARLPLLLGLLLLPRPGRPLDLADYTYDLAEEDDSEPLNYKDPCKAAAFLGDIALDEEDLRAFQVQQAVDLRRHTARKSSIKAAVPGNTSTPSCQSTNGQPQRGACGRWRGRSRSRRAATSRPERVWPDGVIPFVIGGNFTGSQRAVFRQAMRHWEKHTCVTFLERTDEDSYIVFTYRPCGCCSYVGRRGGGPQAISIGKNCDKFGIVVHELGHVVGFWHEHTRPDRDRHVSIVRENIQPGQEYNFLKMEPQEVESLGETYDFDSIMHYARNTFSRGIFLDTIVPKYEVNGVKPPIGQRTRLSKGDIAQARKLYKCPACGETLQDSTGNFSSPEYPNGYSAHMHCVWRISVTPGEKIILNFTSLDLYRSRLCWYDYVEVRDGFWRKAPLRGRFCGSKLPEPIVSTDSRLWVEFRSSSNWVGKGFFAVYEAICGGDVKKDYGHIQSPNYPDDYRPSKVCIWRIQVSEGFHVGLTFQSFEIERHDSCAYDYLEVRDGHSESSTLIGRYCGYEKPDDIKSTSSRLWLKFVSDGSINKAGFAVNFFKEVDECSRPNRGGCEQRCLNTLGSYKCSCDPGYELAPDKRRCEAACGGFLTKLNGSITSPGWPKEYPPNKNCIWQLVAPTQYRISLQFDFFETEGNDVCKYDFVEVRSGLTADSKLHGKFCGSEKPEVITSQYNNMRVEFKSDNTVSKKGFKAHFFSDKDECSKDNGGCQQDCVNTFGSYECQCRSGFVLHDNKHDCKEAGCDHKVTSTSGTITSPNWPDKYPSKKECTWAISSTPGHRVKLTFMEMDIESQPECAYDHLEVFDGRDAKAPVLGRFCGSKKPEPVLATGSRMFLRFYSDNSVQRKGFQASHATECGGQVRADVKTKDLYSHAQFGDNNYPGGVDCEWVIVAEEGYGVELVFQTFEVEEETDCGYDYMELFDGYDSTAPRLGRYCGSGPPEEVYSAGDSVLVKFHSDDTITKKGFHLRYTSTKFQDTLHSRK

Neutrophil collagenase = Neutrophil collagenase (Homo sapiens, UniProt P22894); assay: Inhibition of MMP-8
Sequence of Neutrophil collagenase (P22894 whole entry): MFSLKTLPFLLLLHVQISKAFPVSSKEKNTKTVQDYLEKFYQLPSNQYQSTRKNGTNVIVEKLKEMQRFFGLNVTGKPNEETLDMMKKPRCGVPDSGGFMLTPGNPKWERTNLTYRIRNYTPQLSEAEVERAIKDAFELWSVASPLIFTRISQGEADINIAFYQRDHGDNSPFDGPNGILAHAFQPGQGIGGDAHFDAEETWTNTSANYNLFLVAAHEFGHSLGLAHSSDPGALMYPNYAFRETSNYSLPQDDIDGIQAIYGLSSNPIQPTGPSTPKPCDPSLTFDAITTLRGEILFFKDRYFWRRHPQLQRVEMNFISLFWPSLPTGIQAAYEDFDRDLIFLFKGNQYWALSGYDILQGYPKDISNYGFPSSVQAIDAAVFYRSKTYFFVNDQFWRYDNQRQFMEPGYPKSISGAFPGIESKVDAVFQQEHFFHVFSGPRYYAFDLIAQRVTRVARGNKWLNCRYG

## CCOC(=O)N1CCN(C(=O)CC[C@H](C(=O)NO)N(Cc2ccc3c(c2)OCO3)S(=O)(=O)c2c(C)cc(OC)c(C)c2C)CC1
Interstitial collagenase
  Ki: 32000 nM
[1]
  Ki: 43 nM
Neutrophil collagenase
  Ki: 30000 nM

## COc1ccc(S(=O)(=O)N(Cc2ccc3c(c2)OCO3)[C@H](CCC(=O)N2CCN(C(=O)Nc3cccc(OC)c3)CC2)C(=O)NO)cc1
[1]
  Ki: 105 nM

## COc1ccc(S(=O)(=O)N(Cc2ccc3c(c2)OCO3)[C@H](CCC(=O)N2CCN(c3ccccn3)CC2)C(=O)NO)cc1
[1]
  Ki: 210 nM

## COc1cc(C)c(S(=O)(=O)N(Cc2ccc3c(c2)OCO3)[C@H](CCC(=O)N2CCN(C(=O)OCc3ccccc3)CC2)C(=O)NO)c(C)c1C
Interstitial collagenase
  Ki: > 40000 nM
[1]
  Ki: 100 nM
Neutrophil collagenase
  Ki: 35000 nM

## COC(=O)CC[C@H](C(=O)NO)N(Cc1ccc(C)c([N+](=O)[O-])c1)S(=O)(=O)c1ccc(OC)cc1
[1]
  Ki: > 40000 nM

## COc1ccc(NC(=O)N2CCN(C(=O)CC[C@H](C(=O)NO)N(Cc3ccc4c(c3)OCO4)S(=O)(=O)c3ccc(OC)cc3)CC2)cc1
[1]
  Ki: 90 nM

## COc1ccc(S(=O)(=O)N(Cc2ccc3c(c2)OCO3)[C@H](CCC(=O)N(CCC#N)Cc2ccccc2)C(=O)NO)cc1
[1]
  Ki: 33 nM

## COc1ccc(S(=O)(=O)N(Cc2ccc3c(c2)OCO3)[C@H](CCC(=O)N2CCC(Cc3ccccc3)CC2)C(=O)NO)cc1
[1]
  Ki: 120 nM

## COc1ccc(S(=O)(=O)N(Cc2ccc3c(c2)OCO3)[C@H](CCC(=O)N2CCN(C(=O)c3ccccc3)CC2)C(=O)NO)cc1
[1]
  Ki: 35 nM

## COc1ccc(S(=O)(=O)N(Cc2ccc3c(c2)OCO3)[C@H](CCC(=O)N(Cc2ccccc2)Cc2ccccc2)C(=O)NO)cc1
[1]
  Ki: 400 nM

## COc1ccc(S(=O)(=O)N(Cc2ccc3c(c2)OCO3)[C@H](CCC(=O)NCC2CC2)C(=O)NO)cc1
[1]
  Ki: 660 nM

## COc1ccc(S(=O)(=O)N(Cc2ccc3c(c2)OCO3)[C@H](CCC(=O)N2CCN(c3ccccc3)CC2)C(=O)NO)cc1
[1]
  Ki: 340 nM

## COC(=O)CC[C@H](C(=O)NO)N(Cc1ccc(OC)cc1)S(=O)(=O)c1ccc(OC)cc1
[1]
  Ki: 15000 nM

## COc1ccc(S(=O)(=O)N(Cc2ccc3c(c2)OCO3)[C@H](CCC(=O)N2CCN(C)CC2)C(=O)NO)cc1
[1]
  Ki: 1000 nM

## COC(=O)C[C@H](C(=O)NO)N(Cc1ccc2c(c1)OCO2)S(=O)(=O)c1ccc(OC)cc1
[1]
  Ki: 950 nM

## COc1cc(C)c(S(=O)(=O)N(Cc2ccc3c(c2)OCO3)[C@H](CCC(=O)N2CCN(c3ccccc3)CC2)C(=O)NO)c(C)c1C
Interstitial collagenase
  Ki: > 40000 nM
[1]
  Ki: 110 nM
Neutrophil collagenase
  Ki: 13000 nM

## COc1ccc(S(=O)(=O)N(Cc2ccc3c(c2)OCO3)[C@H](CCC(=O)N2CCN(Cc3ccccn3)CC2)C(=O)NO)cc1
[1]
  Ki: > 1000 nM

## COc1ccc(S(=O)(=O)N(Cc2ccc3c(c2)OCO3)[C@H](CCC(=O)N2CCN(Cc3cccnc3)CC2)C(=O)NO)cc1
[1]
  Ki: 620 nM

## CCN(CC)C(=O)CC[C@H](C(=O)NO)N(Cc1ccc2c(c1)OCO2)S(=O)(=O)c1ccc(OC)cc1
[1]
  Ki: 1300 nM

## COc1ccc(S(=O)(=O)N(Cc2ccc3c(c2)OCO3)[C@H](CCC(=O)N(CCc2ccccc2)Cc2ccccc2)C(=O)NO)cc1
[1]
  Ki: 100 nM

## COC(=O)CC[C@H](C(=O)NO)N(Cc1ccc(C(F)(F)F)cc1)S(=O)(=O)c1ccc(OC)cc1
[1]
  Ki: > 40000 nM

## COc1ccc(S(=O)(=O)N(Cc2ccc3c(c2)OCO3)[C@H](CCC(=O)N2CCNCC2)C(=O)NO)cc1
[1]
  Ki: 1200 nM

## COc1ccc(S(=O)(=O)N(Cc2ccc3c(c2)OCO3)[C@H](CCC(=O)N2CCN(Cc3ccccc3)CC2)C(=O)NO)cc1
[1]
  Ki: 740 nM

## COc1ccc(S(=O)(=O)N(Cc2ccc3c(c2)OCO3)[C@H](CCC(=O)NCc2ccc(-c3ccccc3)cc2)C(=O)NO)cc1
[1]
  Ki: 11 nM

## COc1ccc(S(=O)(=O)N(Cc2ccc3c(c2)OCO3)[C@H](CCC(=O)N2CCN(C(C)=O)CC2)C(=O)NO)cc1
Interstitial collagenase
  Ki: 120 nM
[1]
  Ki: 200 nM
Neutrophil collagenase
  Ki: 9 nM

## COc1cc(C)c(S(=O)(=O)N(Cc2ccc3c(c2)OCO3)[C@H](CCC(=O)N2CCN(C(C)=O)CC2)C(=O)NO)c(C)c1C
Interstitial collagenase
  Ki: 37000 nM
[1]
  Ki: 63 nM
Neutrophil collagenase
  Ki: 7000 nM

## COc1ccc(S(=O)(=O)N(Cc2ccc3c(c2)OCO3)[C@H](CCC(=O)NCc2ccccn2)C(=O)NO)cc1
[1]
  Ki: 530 nM

## COc1ccc(S(=O)(=O)N(Cc2ccc3c(c2)OCO3)[C@H](CCC(=O)NCC(C)C)C(=O)NO)cc1
[1]
  Ki: 280 nM

## COC(=O)CC[C@H](C(=O)NO)N(Cc1ccc(Br)cc1)S(=O)(=O)c1ccc(OC)cc1
[1]
  Ki: > 40000 nM

## COc1ccc(S(=O)(=O)N(Cc2ccc3c(c2)OCO3)[C@H](CCC(=O)N2CCN(C(=O)c3ccco3)CC2)C(=O)NO)cc1
[1]
  Ki: 40 nM

## COc1ccc(S(=O)(=O)N(Cc2ccc3c(c2)OCO3)[C@H](CCC(=O)N2CCN(Cc3ccncc3)CC2)C(=O)NO)cc1
[1]
  Ki: > 1000 nM

## COc1ccc(S(=O)(=O)N(Cc2ccc3c(c2)OCO3)[C@H](CCC(=O)N(C)C)C(=O)NO)cc1
[1]
  Ki: 330 nM

## CCNC(=O)CC[C@H](C(=O)NO)N(Cc1ccc2c(c1)OCO2)S(=O)(=O)c1ccc(OC)cc1
[1]
  Ki: 1200 nM

## COc1ccc(S(=O)(=O)N(Cc2ccc3c(c2)OCO3)[C@H](CCC(=O)NCc2ccccc2)C(=O)NO)cc1
[1]
  Ki: 98 nM

## COc1ccc(S(=O)(=O)N(Cc2ccc3c(c2)OCO3)[C@H](CCC(=O)NCCC(C)C)C(=O)NO)cc1
[1]
  Ki: 20 nM

## COc1ccc(S(=O)(=O)N(Cc2ccc3c(c2)OCO3)[C@H](CCC(=O)N2CCOCC2)C(=O)NO)cc1
[1]
  Ki: 190 nM

## COc1ccc(S(=O)(=O)N(Cc2ccc3c(c2)OCO3)[C@H](CCC(=O)N2CCN(C(=O)OCc3ccccc3)CC2)C(=O)NO)cc1
[1]
  Ki: 260 nM

## COc1ccc(S(=O)(=O)N(Cc2ccc3c(c2)OCO3)[C@H](CCC(=O)NCC2CCCCC2)C(=O)NO)cc1
[1]
  Ki: 410 nM

## COc1ccc(S(=O)(=O)N(Cc2ccc3c(c2)OCO3)[C@H](CCC(=O)NCc2cccnc2)C(=O)NO)cc1
[1]
  Ki: 160 nM

## CCOC(=O)N1CCN(C(=O)CC[C@H](C(=O)NO)N(Cc2ccc3c(c2)OCO3)S(=O)(=O)c2ccc(OC)cc2)CC1
Interstitial collagenase
  Ki: 90 nM
[1]
  Ki: 64 nM
Neutrophil collagenase
  Ki: 6 nM

## COc1ccc(S(=O)(=O)N(Cc2ccc3c(c2)OCO3)[C@H](CCC(=O)N2CCN(S(C)(=O)=O)CC2)C(=O)NO)cc1
[1]
  Ki: 340 nM

## COC(=O)CC[C@H](C(=O)NO)N(Cc1ccc2c(c1)OCO2)S(=O)(=O)c1ccc(OC)cc1
[1]
  Ki: 300 nM

## COc1ccc(S(=O)(=O)N(Cc2ccc3c(c2)OCO3)[C@H](CCC(=O)N(CCC#N)Cc2cccnc2)C(=O)NO)cc1
[1]
  Ki: 480 nM

## COc1ccc(S(=O)(=O)N(Cc2ccc3c(c2)OCO3)[C@H](CCC(=O)NCc2ccncc2)C(=O)NO)cc1
[1]
  Ki: 1170 nM
